Measured values: patent US12077768B2, “Plants having increased tolerance to herbicides” (BASF AGRO B.V., priority 2013, dated 2024)

Test system: mutated PPO sequences (e.g. SEQ ID NOs: 1, 30, 31, 11, 37, and 117) as wildtype or with respective mutations, expressed in leaf discs
Experiment: Herbicide tolerance of transiently transformed tobacco leaf discs expressing wildtype or mutated PPO: tolerance factors from IC50 of PSII yield inhibition versus empty vector
Assay type: cell-based, Nicotiana benthamiana

**Q.** With `C#CCN1C(=O)C(F)(F)Oc2cc(F)c(-n3c(=O)n(C)c(=S)n(C)c3=O)cc21` [1,5-dimethyl-6-thioxo-3-(2,2,7-trifluoro-3-oxo-4-(prop-2-ynyl)-3,4-dihydro-2H-benzo[b][1,4]oxazin-6-yl)-1,3,5-triazinane-2,4-dione] as the molecule, how does the “Tolerance factor (IC50 of PSII yield inhibition, transformed versus empty vector-transformed leaf discs)” value read?
**A.** The value was 28.7.
